Reference: patent publication US5036077A, “1-(benzylpiperidino)propan-2-ol derivatives, their preparation, their use as antimicrobial agents and the products in which they are present” (Sanofi, priority 1987, dated 1991)
Converted amounts (≈) assume the structure as drawn.

Key:
Type in all cases: cell-based
[1] = system: Streptococcus faecalis CNCM 5855; assay: Minimum bactericidal concentration, 30 min contact, strain 2; settings: Streptococcus faecalis CNCM 5855, contact time 30 minutes, solubilizing agent given per product; for MBC: Enterococcus faecalis, CNCM5855, 0.5 h, read-out: MBC, strain 2
Procedure: (§1) A bacterial inoculum is brought into contact with different dilutions of the test product for a limited time of 30 minutes. When the contact time has ended, an aliquot of the bacterial suspension/product mixture is deposited on the surface of a gelose culture medium containing an agent for neutralizing the antibacterial activity of the product. The bactericidal concentration chosen is the minimum concentration of the product which is necessary to prevent bacterial growth. This concentration is expressed in μg/ml.
2 - Streptococcus faecalis CNCM 5855;
(§2) The strains are maintained on Tryptic Soy Agar (TSA) marketed by Difco.
(§3) After 24 hours of culture at 37° C., the microbial growth is harvested with the aid of glass beads and 10 ml of diluent containing 1 g of tryptone and 8.5 g of sodium chloride in 1000 ml of distilled water. The suspension formed is shaken and the percentage transmission of light at 620 nm is measured on a spectrophotometer:
(§4) The bacterial inoculum corresponds to a 1/20 dilution of this bacterial suspension.
(§5) Plates containing cups receive different dilutions of the test product. These dilutions of the test product are brought into contact with the different bacterial suspensions using a multiple-site inoculator. After a contact time of 30 minutes, aliquots are transferred by means of this inoculator to the surface of a gelose medium (TSA) placed in petri dishes and containing an agent for neutralizing the activity, namely 20 g of lubrol W, 2.5 g of Tween 80, 2.5 g of sodium thiosulfate and 1% of egg yolk in 1000 ml of TSA (Difco). A reference for the efficacy of the neutralizing agent is prepared for each test product by depositing an aliquot of the dilution of the test product on the surface of the culture medium. After drying, the corresponding inoculum is deposited in the same place. A reference inoculum is prepared on a gelose medium with and without neutralizing agent. The results are read off after 48 hours of incubation at 37° C.
(§6) They indicate the minimum bactericidal concentrations (MBC) for strains 1, 2, 3 and 4 and the minimum fungicidal concentrations (MFC) for strain 5.

[2] = system: Pseudomonas aeruginosa CNCM A22; assay: Minimum bactericidal concentration, 30 min contact, strain 3; settings: Pseudomonas aeruginosa CNCM A22, contact time 30 minutes, solubilizing agent given per product; for MBC: CNCMA22, 0.5 h, read-out: MBC, strain 3
Procedure: as §1
3 - Pseudomonas aeruginosa CNCM A22;
as §2, §3, §4, §5, §6

[3] = system: Escherichia coli CNCM 54127; assay: Minimum bactericidal concentration, 30 min contact, strain 4; settings: Escherichia coli CNCM 54127, contact time 30 minutes, solubilizing agent given per product; for MBC: CNCM54127, 0.5 h, read-out: MBC, strain 4
Procedure: as §1
4 - Escherichia coli CNCM 54127.
as §2, §3, §4, §5, §6

[4] = system: Staphylococcus aureus CNCM 53154; assay: Minimum bactericidal concentration, 30 min contact, strain 1; settings: Staphylococcus aureus CNCM 53154, contact time 30 minutes, solubilizing agent (water, TEG or acetone) given per product; for MBC: CNCM53154, 0.5 h, read-out: MBC, strain 1
Procedure: as §1
1 - Staphylococcus aureus CNCM 53154;
as §2, §3, §4, §5, §6

[5] = system: Candida albicans CNCM 1180; assay: Minimum fungicidal concentration, strain 5; settings: Candida albicans CNCM 1180, contact time 30 minutes, solubilizing agent given per product; for MFC: CNCM1180, 0.5 h, read-out: MFC, strain 5
Procedure: as §1, §5
The antifungal activity of the products according to the invention was also determined using the method described above. The representative strain of yeast selected for the study was Candida albicans CNCM 1180 (strain 5).
This is maintained on a gelose medium of Sabouraud Dextrose Agar, marketed by Difco. The technique is identical to that described for studying the antibacterial activity. After 48 hours of culture at 37° C., the microbial growth is harvested with the aid of glass beads and 5 ml of diluent containing 1 g of tryptone and 8.5 g of sodium chloride in 1000 ml of distilled water; a further 5 ml of the diluent are then added. In a spectrophotometer, this suspension gives a 2 to 3% transmission of light at 620 nm. The inoculum corresponds to a 1/10 dilution of this microbial suspension. A 1/100 dilution of this suspension, observed between a microscope slide and cover slip through a lens of magnification 40, should show 10 cells per field, which corresponds to 1 000 000 yeasts per ml.
as §6

SMILES | MBC [1] [µg/mL] | MBC [2] [µg/mL] | MBC [3] [µg/mL] | MBC [4] [µg/mL] | MFC [5] [µg/mL] | MBC, strain 2 [1] [µg/mL] | MFC, strain 5 [5] [µg/mL] | MBC, strain 1 [4] [µg/mL] | MBC, strain 3 [2] [µg/mL] | MBC, strain 4 [3] [µg/mL]
Cl.OC(CSc1ccc(Br)cc1)CN1CCC(Cc2ccccc2)CC1 (stereo not shown) [SR 44444 A, 1-(4-Benzylpiperidino)-3-(4-bromophenylthio)propan-2-ol hydrochloride] | 50 | 50 | 50 | 50 | – | – | – | – | – | –
Cl.OC(COc1ccc(Cl)cc1Cl)CN1CCC(Cc2ccccc2)CC1 (stereo not shown) [SR 44333 A, 1-(4-Benzylpiperidino)-3-(2,4-dichlorophenoxy)propan-2-ol hydrochloride] | 100 | 50 | 50 | 100 | – | – | – | – | – | –
Cl.OC(COc1ccc2ccccc2c1Br)CN1CCC(Cc2ccccc2)CC1 (stereo not shown) [SR 44716 A, 1-(4-Benzylpiperidino)-3-(1-bromonaphth-2-yloxy)propan-2-ol hydrochloride] | 50 | 10 | 10 | 50 | 50 | – | – | – | – | –
OC(COc1ccc2ccccc2c1)CN1CCC(Cc2ccccc2)CC1 (racemic) [SR 44807 A] | 1000 (≈ 2660 µM) | 200 (≈ 533 µM) | 200 (≈ 533 µM) | 1000 (≈ 2660 µM) | 1000 (≈ 2660 µM) | – | – | – | – | –
OC(COc1ccc(Cl)c(Cl)c1)CN1CCC(Cc2ccc(Cl)cc2)CC1 (racemic) [SR 45553 A] | 50 (≈ 117 µM) | 50 (≈ 117 µM) | 10 (≈ 23.3 µM) | 10 (≈ 23.3 µM) | 50 (≈ 117 µM) | – | – | – | – | –
OC(COc1ccccc1-c1ccccc1)CN1CCC(Cc2ccccc2)CC1 (racemic) [SR 44676 A] | 50 (≈ 125 µM) | 10 (≈ 24.9 µM) | 10 (≈ 24.9 µM) | 200 (≈ 498 µM) | 50 (≈ 125 µM) | – | – | – | – | –
OC(COc1ccc(Cl)cc1Cl)CN1CCC(Cc2ccccc2)CC1 (racemic) [SR 44333 B, 1-(4-Benzylpiperidino)-3-(2,4-dichlorophenoxy)propan-2-ol methanesulfonate] | 50 | 50 | 50 | 50 | 50 | – | – | – | – | –
OC(CSc1cccc(Br)c1)CN1CCC(Cc2ccccc2)CC1 (racemic) [SR 45204 A] | > 200 | 50 (≈ 119 µM) | 50 (≈ 119 µM) | > 200 | > 200 | – | – | – | – | –
OC(CSc1ccc(Cl)c(Cl)c1)CN1CCCC(Cc2ccccc2)C1 (single isomer, unassigned) [SR 45237 A] | – | – | – | – | – | 50 (≈ 122 µM) | > 200 | > 200 | – | –
OC(COc1ccc(Cl)c(Cl)c1)CN1CCC(Cc2ccccc2)CC1 (racemic) [SR 45551 A] | 50 (≈ 127 µM) | 50 (≈ 127 µM) | 50 (≈ 127 µM) | > 200 | > 200 | – | – | – | – | –
Cl.OC(COc1ccc(Cl)cc1Cc1ccccc1)CN1CCC(Cc2ccccc2)CC1 (stereo not shown) [SR 44719 A, 3-(2-Benzyl-4-chlorophenoxy)-1-(4-benzylpiperidino)propan-2-ol hydrochloride] | 10 | 10 | 5 | 10 | 50 | – | – | – | – | –
OC(COc1cccc2ccccc12)CN1CCC(Cc2ccc(Cl)cc2)CC1 (racemic) [SR 44999 A] | ≤ 10 | ≤ 10 | ≤ 10 | 50 (≈ 122 µM) | ≤ 10 | – | – | – | – | –
CS(=O)(=O)O.OC(COc1ccc(Cl)cc1Cl)CN1CCCC(Cc2ccccc2)C1 (stereo not shown) [SR 44957 A, 1-(3-Benzylpiperidino)-3-(2,4-dichlorophenoxy)propan-2-ol methanesulfonate] | – | – | – | – | – | ≤ 10 | 50 | 50 | ≤ 10 | ≤ 10
OC(CSc1ccc(Cl)c(Cl)c1)CN1CCC(Cc2ccccc2)CC1 (racemic) [SR 44473 A] | 50 (≈ 122 µM) | 50 (≈ 122 µM) | 50 (≈ 122 µM) | 1000 (≈ 2440 µM) | 50 (≈ 122 µM) | – | – | – | – | –
OC(COc1cc(Br)c2ccccc2c1)CN1CCC(Cc2ccccc2)CC1 (racemic) [SR 44674 A] | 10 (≈ 22 µM) | 10 (≈ 22 µM) | 10 (≈ 22 µM) | 10 (≈ 22 µM) | 200 (≈ 440 µM) | – | – | – | – | –
OC(COc1cccc2ccccc12)CN1CCC(Cc2ccccc2)CC1 (racemic) [SR 44644 A] | 50 (≈ 133 µM) | 50 (≈ 133 µM) | 50 (≈ 133 µM) | 50 (≈ 133 µM) | 50 (≈ 133 µM) | – | – | – | – | –
OC(CSc1ccc(Cl)c(Cl)c1)CN1CCCC(Cc2ccccc2)C1 (single isomer, unassigned) [SR 45236 A] | 50 (≈ 122 µM) | 50 (≈ 122 µM) | 50 (≈ 122 µM) | > 200 | > 200 | – | – | – | – | –
OC(COc1cc(Cl)ccc1Oc1ccc(Cl)cc1Cl)CN1CCC(Cc2ccccc2)CC1 (racemic) [SR 44641 A] | 10 (≈ 19.2 µM) | 10 (≈ 19.2 µM) | 5 (≈ 9.6 µM) | 50 (≈ 96 µM) | 50 (≈ 96 µM) | – | – | – | – | –
OC(COc1ccc(F)cc1F)CN1CCC(Cc2ccccc2)CC1 (racemic) [SR 44971 A] | 1000 (≈ 2770 µM) | 1000 (≈ 2770 µM) | 1000 (≈ 2770 µM) | 1000 (≈ 2770 µM) | 1000 (≈ 2770 µM) | – | – | – | – | –
OC(COc1cc(Cl)c(Cl)cc1Cl)CN1CCC(Cc2ccccc2)CC1 (racemic) [SR 44560 A] | 50 (≈ 117 µM) | 50 (≈ 117 µM) | 5 (≈ 11.7 µM) | 10 (≈ 23.3 µM) | 50 (≈ 117 µM) | – | – | – | – | –
OC(COc1ccc(Cl)cc1Cc1ccccc1)CN1CCC(Cc2ccccc2)CC1 (racemic) [SR 44719 B] | 5 (≈ 11.1 µM) | 10 (≈ 22.2 µM) | 5 (≈ 11.1 µM) | 10 (≈ 22.2 µM) | 10 (≈ 22.2 µM) | – | – | – | – | –
OC(COc1ccc(Br)cc1)CN1CCC(Cc2ccccc2)CC1 (racemic) [SR 44251 A] | 100 (≈ 247 µM) | 100 (≈ 247 µM) | 100 (≈ 247 µM) | 100 (≈ 247 µM) | – | – | – | – | – | –
OC(COc1ccc(Cl)cc1)CN1CCC(Cc2ccccc2)CC1 (racemic) [SR 44334 A] | 100 (≈ 278 µM) | 100 (≈ 278 µM) | 100 (≈ 278 µM) | 500 (≈ 1390 µM) | – | – | – | – | – | –
